Experimental data: the NIST ThermoML archive (doi:10.1007/s10765-005-5566-6)
Numbers after ± are expanded uncertainties.

Experiment: xn = mol fraction of the nth substance listed
Conditions: Gas, Hot wire method

C [methane] + O=C=O
thermal conductivity (375 K, 919 kPa, x1 = 0.2493): 0.02872 ± 0.00051 W/m/K | thermal conductivity (375 K, 919 kPa, x1 = 0.4994): 0.03475 ± 0.00061 W/m/K | thermal conductivity (375 K, 930 kPa, x1 = 0.7496): 0.04098 ± 0.00071 W/m/K | thermal conductivity (375 K, 1460 kPa, x1 = 0.2493): 0.02883 ± 0.00051 W/m/K | thermal conductivity (375 K, 1528 kPa, x1 = 0.7496): 0.04104 ± 0.00071 W/m/K | thermal conductivity (375 K, 1578 kPa, x1 = 0.4994): 0.0348 ± 0.00061 W/m/K | thermal conductivity (375 K, 1986 kPa, x1 = 0.2493): 0.02895 ± 0.00052 W/m/K | thermal conductivity (375 K, 2135 kPa, x1 = 0.7496): 0.04117 ± 0.00071 W/m/K | thermal conductivity (375 K, 2220 kPa, x1 = 0.4994): 0.03492 ± 0.00061 W/m/K | thermal conductivity (375 K, 2510 kPa, x1 = 0.2493): 0.02913 ± 0.00052 W/m/K | thermal conductivity (375 K, 2740 kPa, x1 = 0.7496): 0.04129 ± 0.00072 W/m/K | thermal conductivity (375 K, 2840 kPa, x1 = 0.4994): 0.0352 ± 0.00062 W/m/K | thermal conductivity (375 K, 3015 kPa, x1 = 0.2493): 0.02945 ± 0.00053 W/m/K | thermal conductivity (375 K, 3310 kPa, x1 = 0.7496): 0.04145 ± 0.00072 W/m/K | thermal conductivity (375 K, 3480 kPa, x1 = 0.4994): 0.03545 ± 0.00062 W/m/K | thermal conductivity (375 K, 3510 kPa, x1 = 0.2493): 0.0297 ± 0.00053 W/m/K | thermal conductivity (375 K, 3915 kPa, x1 = 0.7496): 0.04181 ± 0.00073 W/m/K | thermal conductivity (375 K, 4005 kPa, x1 = 0.2493): 0.02993 ± 0.00054 W/m/K | thermal conductivity (375 K, 4100 kPa, x1 = 0.4994): 0.03561 ± 0.00063 W/m/K | thermal conductivity (375 K, 4490 kPa, x1 = 0.7496): 0.04204 ± 0.00073 W/m/K | thermal conductivity (375 K, 4500 kPa, x1 = 0.2493): 0.0302 ± 0.00054 W/m/K | thermal conductivity (375 K, 4715 kPa, x1 = 0.4994): 0.03598 ± 0.00063 W/m/K | thermal conductivity (375 K, 4975 kPa, x1 = 0.2493): 0.03051 ± 0.00055 W/m/K | thermal conductivity (375 K, 5440 kPa, x1 = 0.2493): 0.03075 ± 0.00055 W/m/K | thermal conductivity (375 K, 5855 kPa, x1 = 0.4994): 0.03682 ± 0.00065 W/m/K | thermal conductivity (375 K, 6910 kPa, x1 = 0.7496): 0.04355 ± 0.00076 W/m/K | thermal conductivity (375 K, 6930 kPa, x1 = 0.4994): 0.03739 ± 0.00066 W/m/K | thermal conductivity (375 K, 8000 kPa, x1 = 0.4994): 0.03823 ± 0.00068 W/m/K | thermal conductivity (375 K, 9330 kPa, x1 = 0.7496): 0.04538 ± 0.0008 W/m/K | thermal conductivity (375 K, 11600 kPa, x1 = 0.7496): 0.04722 ± 0.00083 W/m/K | thermal conductivity (400 K, 983 kPa, x1 = 0.2493): 0.03152 ± 0.00056 W/m/K | thermal conductivity (400 K, 986 kPa, x1 = 0.4994): 0.03807 ± 0.00066 W/m/K | thermal conductivity (400 K, 993 kPa, x1 = 0.7496): 0.04503 ± 0.00077 W/m/K | thermal conductivity (400 K, 1410 kPa, x1 = 0.2493): 0.0316 ± 0.00056 W/m/K | thermal conductivity (400 K, 1690 kPa, x1 = 0.4994): 0.03812 ± 0.00066 W/m/K | thermal conductivity (400 K, 1700 kPa, x1 = 0.7496): 0.04501 ± 0.00077 W/m/K | thermal conductivity (400 K, 1820 kPa, x1 = 0.2493): 0.03172 ± 0.00056 W/m/K | thermal conductivity (400 K, 2230 kPa, x1 = 0.2493): 0.03183 ± 0.00056 W/m/K | thermal conductivity (400 K, 2378 kPa, x1 = 0.4994): 0.03826 ± 0.00067 W/m/K | thermal conductivity (400 K, 2393 kPa, x1 = 0.7496): 0.04519 ± 0.00078 W/m/K | thermal conductivity (400 K, 2635 kPa, x1 = 0.2493): 0.03187 ± 0.00056 W/m/K | thermal conductivity (400 K, 3040 kPa, x1 = 0.2493): 0.03201 ± 0.00057 W/m/K | thermal conductivity (400 K, 3061 kPa, x1 = 0.4994): 0.03844 ± 0.00067 W/m/K | thermal conductivity (400 K, 3115 kPa, x1 = 0.7496): 0.04526 ± 0.00078 W/m/K | thermal conductivity (400 K, 3435 kPa, x1 = 0.2493): 0.03228 ± 0.00057 W/m/K | thermal conductivity (400 K, 3740 kPa, x1 = 0.4994): 0.03866 ± 0.00068 W/m/K | thermal conductivity (400 K, 3770 kPa, x1 = 0.7496): 0.04535 ± 0.00078 W/m/K | thermal conductivity (400 K, 3850 kPa, x1 = 0.2493): 0.03241 ± 0.00057 W/m/K | thermal conductivity (400 K, 4240 kPa, x1 = 0.2493): 0.03258 ± 0.00058 W/m/K | thermal conductivity (400 K, 4390 kPa, x1 = 0.4994): 0.03887 ± 0.00068 W/m/K | thermal conductivity (400 K, 4460 kPa, x1 = 0.7496): 0.04578 ± 0.00079 W/m/K | thermal conductivity (400 K, 4615 kPa, x1 = 0.2493): 0.03271 ± 0.00058 W/m/K | thermal conductivity (400 K, 5060 kPa, x1 = 0.4994): 0.03918 ± 0.00069 W/m/K | thermal conductivity (400 K, 5140 kPa, x1 = 0.7496): 0.04598 ± 0.0008 W/m/K | thermal conductivity (400 K, 5667 kPa, x1 = 0.4994): 0.03961 ± 0.00069 W/m/K | thermal conductivity (400 K, 6180 kPa, x1 = 0.4994): 0.0398 ± 0.0007 W/m/K | thermal conductivity (400 K, 6670 kPa, x1 = 0.7496): 0.04688 ± 0.00082 W/m/K | thermal conductivity (400 K, 6710 kPa, x1 = 0.4994): 0.04014 ± 0.00071 W/m/K | thermal conductivity (400 K, 8110 kPa, x1 = 0.7496): 0.04756 ± 0.00083 W/m/K | thermal conductivity (400 K, 9545 kPa, x1 = 0.7496): 0.04861 ± 0.00085 W/m/K | thermal conductivity (425 K, 1048 kPa, x1 = 0.2493): 0.03418 ± 0.0006 W/m/K | thermal conductivity (425 K, 1050 kPa, x1 = 0.4994): 0.04164 ± 0.00072 W/m/K | thermal conductivity (425 K, 1050 kPa, x1 = 0.7496): 0.04889 ± 0.00083 W/m/K | thermal conductivity (425 K, 1530 kPa, x1 = 0.2493): 0.03411 ± 0.0006 W/m/K | thermal conductivity (425 K, 1799 kPa, x1 = 0.4994): 0.04146 ± 0.00072 W/m/K | thermal conductivity (425 K, 1810 kPa, x1 = 0.7496): 0.04908 ± 0.00084 W/m/K | thermal conductivity (425 K, 1938 kPa, x1 = 0.2493): 0.03436 ± 0.0006 W/m/K | thermal conductivity (425 K, 2390 kPa, x1 = 0.2493): 0.03434 ± 0.0006 W/m/K | thermal conductivity (425 K, 2554 kPa, x1 = 0.4994): 0.04156 ± 0.00072 W/m/K | thermal conductivity (425 K, 2558 kPa, x1 = 0.7496): 0.04898 ± 0.00084 W/m/K | thermal conductivity (425 K, 2810 kPa, x1 = 0.2493): 0.03448 ± 0.00061 W/m/K | thermal conductivity (425 K, 3260 kPa, x1 = 0.2493): 0.03452 ± 0.00061 W/m/K | thermal conductivity (425 K, 3260 kPa, x1 = 0.4994): 0.04176 ± 0.00072 W/m/K | thermal conductivity (425 K, 3300 kPa, x1 = 0.7496): 0.04919 ± 0.00084 W/m/K | thermal conductivity (425 K, 3690 kPa, x1 = 0.2493): 0.03472 ± 0.00061 W/m/K | thermal conductivity (425 K, 4000 kPa, x1 = 0.4994): 0.04192 ± 0.00073 W/m/K | thermal conductivity (425 K, 4050 kPa, x1 = 0.7496): 0.04919 ± 0.00085 W/m/K | thermal conductivity (425 K, 4120 kPa, x1 = 0.2493): 0.0349 ± 0.00062 W/m/K | thermal conductivity (425 K, 4540 kPa, x1 = 0.2493): 0.03506 ± 0.00062 W/m/K | thermal conductivity (425 K, 4730 kPa, x1 = 0.4994): 0.04207 ± 0.00073 W/m/K | thermal conductivity (425 K, 4800 kPa, x1 = 0.7496): 0.0498 ± 0.00086 W/m/K | thermal conductivity (425 K, 4960 kPa, x1 = 0.2493): 0.0353 ± 0.00062 W/m/K | thermal conductivity (425 K, 5460 kPa, x1 = 0.4994): 0.04245 ± 0.00074 W/m/K | thermal conductivity (425 K, 5520 kPa, x1 = 0.7496): 0.05001 ± 0.00086 W/m/K | thermal conductivity (425 K, 6410 kPa, x1 = 0.4994): 0.04284 ± 0.00075 W/m/K | thermal conductivity (425 K, 7380 kPa, x1 = 0.4994): 0.04335 ± 0.00076 W/m/K | thermal conductivity (425 K, 7670 kPa, x1 = 0.7496): 0.05089 ± 0.00088 W/m/K | thermal conductivity (425 K, 8310 kPa, x1 = 0.4994): 0.04385 ± 0.00077 W/m/K | thermal conductivity (425 K, 9820 kPa, x1 = 0.7496): 0.05188 ± 0.00091 W/m/K | thermal conductivity (425 K, 11970 kPa, x1 = 0.7496): 0.05348 ± 0.00094 W/m/K
